Source: patent US9096601B2 (CSPC Zhongqi Pharmaceutical Technology (Shijiazhuang) Co., …, priority 2010, dated 2015)
Like-named read-outs stand apart in the source and are kept apart here.

Tests used:
[1] = system: acute myelogenous leukemia cell strain MV4-11; test: In-vitro tumor cell proliferation inhibition, MTT; type: cell-based, human
Excerpt: (§1) The object of this assay was to test the inventive compounds for the inhibitory activity of in-vitro tumor cell proliferation. The MTT (tetreamethyl-azo-zole-salt) colorimetric method was used in this assay.
(§2) Human non-small cell lung carcinoma cell strains HCC827, PC-9, H1975 (EGFR L858R/T790M mutation) and H292 (EGFR WT), and other tumor type cell strains, including human acute myelogenous leukemia cell strain MV4-11, human chronic granulocytic leukemia cell strain K562, human squamous cell carcinoma cell strain A431, human breast carcinoma cell strains MDA-MB-468 and BT 474, human colon cancer cell strains SW480, HCT116 and SW620, human liver cancer cell strain Hep G2, human gastric cancer cell strain MK-45, and human malignant melanoma cell strain A375 used in this assay were all purchased from ATCC company, USA and kept in the laboratory. All of the above-mentioned non-small cell lung carcinoma cell strains and the breast carcinoma cell strain BT 474 were cultured with a RPMI-1640 complete culture medium containing 10% fetal bovine serum, 100 U/ml penicillin and 100 μg/ml streptomycin under 5% CO2 and at 37° C. The other cell strains were cultured with a DMEM complete culture medium containing 10% fetal bovine serum (having a MV4-11 cell content of 20%), 100 U/ml penicillin and 100 μg/ml streptomycin under 5% CO2 and 37° C.
(§3) A cell suspension having a cell concentration of 1-2×10^4 cells/ml was treated with a complete cell culture solution to adjust the cell concentration, wherein the cell concentrations for HCC827 and MV4-11 were adjusted to 6×10^4 cells/ml and 1×10^5 cells/ml respectively. The cell suspension was inoculated in a 96-well plate with 200 μl cell suspension/well and cultured overnight. Next day, the supernatant was drawn off and discarded. Then, the cells were treated with the tested compounds in a gradient concentration respectively. In the meanwhile, a negative control group free of the drug substance and an isovolumetric solvent control group (having a DMSO concentration of 1%) were used. The triplicate wells were used for each of dose groups. The culturing was conducted at 37° C. under 5% CO2. After 72 hours, […] having a concentration of 5 mg/ml was added to each of wells. The culturing was further conducted for 2-4 hours. The supernatant was discarded. Then […] was added to each of wells. The contents in the well were mixed homogenously by oscillation for 15 minutes. The absorbance (A) value was measured with a microplate reader at λ=570 nm (the A value is in the direct proportion to the number of living cells) and averaged. The relative cell proliferation inhibitory rate is (A570 control-group−A570 dose-group)/A570 control-group×100%. The assay was repeated for at least three times. The data was expressed as number average. The statistical data were analyzed using t-test. P<0.05 was considered significant. The cell proliferation inhibition of the following compounds was expressed as IC50 or inhibitory rate.

[2] = system: colon cancer cell strain SW480; test: In-vitro tumor cell proliferation inhibition, MTT; type: cell-based, human
Excerpt: as §1, §2, §3

[3] = system: gastric cancer cell strain MK-45; test: In-vitro tumor cell proliferation inhibition, MTT; type: cell-based, human; details: 72 hours, read-out: MK45 (IC50)
Excerpt: as §1, §2, §3

[4] = system: breast carcinoma cell strain MDA-MB-468; test: In-vitro tumor cell proliferation inhibition, MTT; type: cell-based, human
Excerpt: as §1, §2, §3

[5] = system: colon cancer cell strain SW620; test: In-vitro tumor cell proliferation inhibition, MTT; type: cell-based, human
Excerpt: as §1, §2, §3

[6] = system: colon cancer cell strain HCT116; test: In-vitro tumor cell proliferation inhibition, MTT; type: cell-based, human
Excerpt: as §1, §2, §3

[7] = system: liver cancer cell strain Hep G2; test: In-vitro tumor cell proliferation inhibition, MTT; type: cell-based, human
Excerpt: as §1, §2, §3

[8] = system: malignant melanoma cell strain A375; test: In-vitro tumor cell proliferation inhibition, MTT; type: cell-based, human
Excerpt: as §1, §2, §3

[9] = system: squamous cell carcinoma cell strain A431; test: In-vitro tumor cell proliferation inhibition, MTT; type: cell-based, human
Excerpt: as §1, §2, §3

[10] = system: chronic granulocytic leukemia cell strain K562; test: In-vitro tumor cell proliferation inhibition, MTT; type: cell-based, human
Excerpt: as §1, §2, §3

[11] = system: breast carcinoma cell strain BT474; test: In-vitro tumor cell proliferation inhibition, MTT; type: cell-based, human
Excerpt: as §1, §2, §3

[12] = molecular target: ALK (Homo sapiens (Human), UniProt Q9UM73); test: Kinase inhibitory activity, isotopic labeling (γ-33P-ATP); type: biochemical; details: compound at 10 μM; read-out: The kinase activity inhibitory rate (%) by the tested compounds at 10 μM ALK
Experimental: (§4) The object of this assay was to test the inventive compounds for the kinase inhibitory activity in vitro. In this assay, an isotopic labeling method was used to label the γ phosphate group on ATP. EGFR (including wild type, L858R mutant type and L858R/T790M double mutant type), VEGFR2, ALK, BTK, c-KIT, c-SRC, MET, PDGFRα and FLT3 kinases were tested in vitro for the activity inhibition. Staurosporine was used as a reference molecule (or referred to as a positive control). […] The IC50 value can be obtained by the calculation of the inhibitory rates at a series of different concentrations of the tested compounds.
(§5) To a reaction tube were successively added the buffer solution (8 mM MOPS, pH 7.0, 0.2 mM EDTA, 10 mM MnCl2), the kinase to be tested (5-10 mU) (EGFR/ALK/BTK/c-KIT/c-SRC/MET/PDGFRα/VEGFR2), the substrate for the kinase to be tested (a reference material), 10 mM of the solution of magnesium acetate and γ-^33 P-ATP, and different concentrations of the tested compounds. […] The reaction was terminated with […] of the 3% phosphate buffer solution. 10 μL of the reaction liquid was titrated on the Filtermat A membrane. The membrane was washed with 75 mM of the phosphate solution thrice (5 minutes each time), and then with methanol once, and finally dried. The membrane was subjected to a scintillation counting. The value of the scintillation counting reflected the phosphorylation level of the substrate and therefore could characterize the inhibition of the kinase activity.

[13] = molecular target: BTK (Homo sapiens (Human), UniProt Q06187); test: as above; type: biochemical; details: compound at 10 μM; read-out: The kinase activity inhibitory rate (%) by the tested compounds at 10 μM BTK
Experimental: as §4, §5

[14] = molecular target: VEGFR2 (Homo sapiens (Human), UniProt P35968); test: as above; type: biochemical
Experimental: as §4, §5

[15] = molecular target: MET (Homo sapiens (Human), UniProt P08581); test: as above; type: biochemical; details: compound at 10 μM; read-out: The kinase activity inhibitory rate (%) by the tested compounds at 10 μM MET
Experimental: as §4, §5

[16] = molecular target: FLT3 (Homo sapiens (Human), UniProt P36888); test: as above; type: biochemical; details: compound at 10 μM; read-out: The kinase activity inhibitory rate (%) by the tested compounds at 10 μM FLT3
Experimental: as §4, §5

[17] = molecular target: c-KIT (Homo sapiens (Human), UniProt P10721); test: as above; type: biochemical; details: compound at 10 μM; read-out: The kinase activity inhibitory rate (%) by the tested compounds at 10 μM c-KIT
Experimental: as §4, §5

[18] = molecular target: c-SRC (Homo sapiens (Human), UniProt P12931); test: as above; type: biochemical; details: compound at 10 μM; read-out: The kinase activity inhibitory rate (%) by the tested compounds at 10 μM c-SRC
Experimental: as §4, §5

[19] = molecular target: PDGFRα (Homo sapiens (Human), UniProt P16234); test: as above; type: biochemical; details: compound at 10 μM; read-out: The kinase activity inhibitory rate (%) by the tested compounds at 10 μM PDGFRα
Experimental: as §4, §5

[20] = system: non-small cell lung carcinoma cell strain PC-9 (EGFR delE746-A750 deletion mutation); test: In-vitro tumor cell proliferation inhibition, MTT; type: cell-based, human; details: 72 hours
Experimental: as §1
(§6) All of the above-mentioned non-small cell lung carcinoma cell strains and the breast carcinoma cell strain BT 474 were cultured with a RPMI-1640 complete culture medium containing 10% fetal bovine serum, 100 U/ml penicillin and 100 μg/ml streptomycin under 5% CO2 and at 37° C. The other cell strains were cultured with a DMEM complete culture medium containing 10% fetal bovine serum (having a MV4-11 cell content of 20%), 100 U/ml penicillin and 100 μg/ml streptomycin under 5% CO2 and 37° C.
as §3

[21] = system: non-small cell lung carcinoma cell strain HCC827; test: In-vitro tumor cell proliferation inhibition, MTT; type: cell-based, human; details: 72 hours
Experimental: as §1, §6, §3

[22] = system: non-small cell lung carcinoma cell strain H292 (EGFR WT); test: In-vitro tumor cell proliferation inhibition, MTT; type: cell-based, human; details: 72 hours
Experimental: as §1, §6, §3

[23] = system: non-small cell lung carcinoma cell strain H1975 (EGFR L858R/T790M mutation); test: In-vitro tumor cell proliferation inhibition, MTT; type: cell-based, human; details: 72 hours
Experimental: as §1, §6, §3

[24] = 72 hours, read-out: HEPG2 (IC50)

Sequence of MET (P08581 25-1390): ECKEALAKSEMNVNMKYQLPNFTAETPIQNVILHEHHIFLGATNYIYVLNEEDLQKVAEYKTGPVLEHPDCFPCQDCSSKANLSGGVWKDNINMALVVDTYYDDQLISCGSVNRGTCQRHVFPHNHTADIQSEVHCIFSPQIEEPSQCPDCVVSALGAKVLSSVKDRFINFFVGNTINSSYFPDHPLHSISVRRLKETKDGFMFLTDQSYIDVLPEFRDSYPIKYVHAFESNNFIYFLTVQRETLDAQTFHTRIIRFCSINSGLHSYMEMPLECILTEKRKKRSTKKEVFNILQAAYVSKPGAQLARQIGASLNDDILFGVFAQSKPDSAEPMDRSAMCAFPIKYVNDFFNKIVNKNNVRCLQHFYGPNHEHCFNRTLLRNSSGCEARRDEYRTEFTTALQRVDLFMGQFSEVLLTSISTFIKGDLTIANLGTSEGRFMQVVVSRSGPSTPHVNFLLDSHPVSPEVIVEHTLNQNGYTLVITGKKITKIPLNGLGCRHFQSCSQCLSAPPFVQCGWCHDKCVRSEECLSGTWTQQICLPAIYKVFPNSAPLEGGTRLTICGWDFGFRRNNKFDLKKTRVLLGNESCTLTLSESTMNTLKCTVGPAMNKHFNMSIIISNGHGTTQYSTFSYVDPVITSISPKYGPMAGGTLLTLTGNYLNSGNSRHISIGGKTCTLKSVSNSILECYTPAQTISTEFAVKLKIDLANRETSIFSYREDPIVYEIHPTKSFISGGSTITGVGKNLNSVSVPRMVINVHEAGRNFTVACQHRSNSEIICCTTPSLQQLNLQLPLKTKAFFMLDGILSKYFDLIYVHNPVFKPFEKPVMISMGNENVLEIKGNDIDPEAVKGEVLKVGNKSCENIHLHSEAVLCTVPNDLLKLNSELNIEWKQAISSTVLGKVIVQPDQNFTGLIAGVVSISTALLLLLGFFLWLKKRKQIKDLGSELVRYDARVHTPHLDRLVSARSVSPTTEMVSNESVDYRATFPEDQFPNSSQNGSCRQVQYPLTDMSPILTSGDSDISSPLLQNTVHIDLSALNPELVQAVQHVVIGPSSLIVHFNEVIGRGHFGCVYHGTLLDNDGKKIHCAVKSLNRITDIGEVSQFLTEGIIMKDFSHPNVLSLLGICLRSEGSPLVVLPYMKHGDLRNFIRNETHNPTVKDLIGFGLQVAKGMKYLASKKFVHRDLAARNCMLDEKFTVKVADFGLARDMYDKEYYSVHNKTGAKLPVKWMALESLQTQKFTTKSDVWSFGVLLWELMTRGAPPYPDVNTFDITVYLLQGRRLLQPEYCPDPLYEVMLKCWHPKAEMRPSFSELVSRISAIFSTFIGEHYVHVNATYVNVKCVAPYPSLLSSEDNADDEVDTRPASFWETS
Sequence of FLT3 (P36888 27-993): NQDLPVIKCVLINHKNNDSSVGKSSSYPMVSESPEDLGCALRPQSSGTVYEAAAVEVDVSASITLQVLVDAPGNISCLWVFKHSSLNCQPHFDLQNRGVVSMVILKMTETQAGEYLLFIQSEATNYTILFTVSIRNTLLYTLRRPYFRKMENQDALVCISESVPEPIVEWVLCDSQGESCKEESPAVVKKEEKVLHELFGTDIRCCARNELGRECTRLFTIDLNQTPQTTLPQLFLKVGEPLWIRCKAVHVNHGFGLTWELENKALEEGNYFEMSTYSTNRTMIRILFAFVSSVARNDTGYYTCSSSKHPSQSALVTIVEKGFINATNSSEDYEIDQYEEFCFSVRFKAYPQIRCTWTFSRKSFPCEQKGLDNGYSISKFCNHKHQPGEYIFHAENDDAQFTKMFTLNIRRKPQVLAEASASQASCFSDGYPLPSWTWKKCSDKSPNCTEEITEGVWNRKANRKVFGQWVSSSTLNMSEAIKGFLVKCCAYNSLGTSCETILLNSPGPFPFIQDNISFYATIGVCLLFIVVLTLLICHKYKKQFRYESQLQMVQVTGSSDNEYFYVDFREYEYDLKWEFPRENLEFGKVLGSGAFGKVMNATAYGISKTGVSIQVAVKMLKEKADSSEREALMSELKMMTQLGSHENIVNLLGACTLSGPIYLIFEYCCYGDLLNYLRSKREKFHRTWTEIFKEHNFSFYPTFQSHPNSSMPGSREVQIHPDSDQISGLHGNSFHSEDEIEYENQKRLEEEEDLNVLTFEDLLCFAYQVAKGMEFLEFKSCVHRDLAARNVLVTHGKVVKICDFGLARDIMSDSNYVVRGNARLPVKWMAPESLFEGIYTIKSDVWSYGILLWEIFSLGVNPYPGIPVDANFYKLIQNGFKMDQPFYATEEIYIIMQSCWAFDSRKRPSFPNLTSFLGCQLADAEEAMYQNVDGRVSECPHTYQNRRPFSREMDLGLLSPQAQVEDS
Sequence of ALK (Q9UM73 19-1620): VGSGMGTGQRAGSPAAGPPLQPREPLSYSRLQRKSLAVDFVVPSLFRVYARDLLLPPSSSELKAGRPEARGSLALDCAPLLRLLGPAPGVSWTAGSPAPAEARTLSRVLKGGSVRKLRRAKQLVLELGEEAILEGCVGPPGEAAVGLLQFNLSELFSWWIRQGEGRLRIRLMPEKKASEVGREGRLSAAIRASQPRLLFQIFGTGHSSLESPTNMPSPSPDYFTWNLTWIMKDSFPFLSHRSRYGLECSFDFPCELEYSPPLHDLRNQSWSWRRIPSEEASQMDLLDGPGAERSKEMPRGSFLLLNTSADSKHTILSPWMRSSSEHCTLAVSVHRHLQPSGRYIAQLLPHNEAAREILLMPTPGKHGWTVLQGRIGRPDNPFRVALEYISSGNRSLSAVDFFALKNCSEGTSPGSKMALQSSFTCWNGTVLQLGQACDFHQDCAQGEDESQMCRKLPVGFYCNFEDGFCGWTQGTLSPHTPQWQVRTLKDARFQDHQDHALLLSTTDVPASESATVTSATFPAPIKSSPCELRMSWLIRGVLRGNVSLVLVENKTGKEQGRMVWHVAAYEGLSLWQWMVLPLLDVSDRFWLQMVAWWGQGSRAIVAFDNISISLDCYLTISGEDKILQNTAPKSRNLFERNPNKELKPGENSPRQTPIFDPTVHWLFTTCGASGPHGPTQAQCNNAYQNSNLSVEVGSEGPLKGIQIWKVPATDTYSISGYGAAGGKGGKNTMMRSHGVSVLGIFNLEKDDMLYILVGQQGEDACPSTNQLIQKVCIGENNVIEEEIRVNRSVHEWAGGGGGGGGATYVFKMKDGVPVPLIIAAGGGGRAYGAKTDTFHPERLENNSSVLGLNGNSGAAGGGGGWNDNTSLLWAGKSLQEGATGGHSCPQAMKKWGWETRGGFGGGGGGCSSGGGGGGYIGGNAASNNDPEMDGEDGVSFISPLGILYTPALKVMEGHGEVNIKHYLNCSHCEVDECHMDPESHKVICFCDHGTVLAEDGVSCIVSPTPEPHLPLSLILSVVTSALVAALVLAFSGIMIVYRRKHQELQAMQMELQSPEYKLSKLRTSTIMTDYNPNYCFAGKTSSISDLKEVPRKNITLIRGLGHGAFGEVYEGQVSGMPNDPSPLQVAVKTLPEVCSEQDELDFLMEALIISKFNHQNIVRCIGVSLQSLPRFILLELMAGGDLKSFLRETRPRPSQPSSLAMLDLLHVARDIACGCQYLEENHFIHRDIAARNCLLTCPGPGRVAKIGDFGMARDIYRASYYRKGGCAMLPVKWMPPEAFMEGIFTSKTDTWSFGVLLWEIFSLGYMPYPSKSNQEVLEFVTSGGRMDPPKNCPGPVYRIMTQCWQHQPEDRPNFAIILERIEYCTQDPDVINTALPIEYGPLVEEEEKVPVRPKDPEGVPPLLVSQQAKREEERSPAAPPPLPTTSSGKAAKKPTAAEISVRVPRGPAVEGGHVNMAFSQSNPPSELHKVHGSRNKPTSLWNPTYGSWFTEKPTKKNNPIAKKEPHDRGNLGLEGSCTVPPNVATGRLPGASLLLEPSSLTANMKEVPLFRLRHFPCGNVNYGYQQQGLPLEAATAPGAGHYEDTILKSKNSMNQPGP
Sequence of BTK (Q06187 whole entry): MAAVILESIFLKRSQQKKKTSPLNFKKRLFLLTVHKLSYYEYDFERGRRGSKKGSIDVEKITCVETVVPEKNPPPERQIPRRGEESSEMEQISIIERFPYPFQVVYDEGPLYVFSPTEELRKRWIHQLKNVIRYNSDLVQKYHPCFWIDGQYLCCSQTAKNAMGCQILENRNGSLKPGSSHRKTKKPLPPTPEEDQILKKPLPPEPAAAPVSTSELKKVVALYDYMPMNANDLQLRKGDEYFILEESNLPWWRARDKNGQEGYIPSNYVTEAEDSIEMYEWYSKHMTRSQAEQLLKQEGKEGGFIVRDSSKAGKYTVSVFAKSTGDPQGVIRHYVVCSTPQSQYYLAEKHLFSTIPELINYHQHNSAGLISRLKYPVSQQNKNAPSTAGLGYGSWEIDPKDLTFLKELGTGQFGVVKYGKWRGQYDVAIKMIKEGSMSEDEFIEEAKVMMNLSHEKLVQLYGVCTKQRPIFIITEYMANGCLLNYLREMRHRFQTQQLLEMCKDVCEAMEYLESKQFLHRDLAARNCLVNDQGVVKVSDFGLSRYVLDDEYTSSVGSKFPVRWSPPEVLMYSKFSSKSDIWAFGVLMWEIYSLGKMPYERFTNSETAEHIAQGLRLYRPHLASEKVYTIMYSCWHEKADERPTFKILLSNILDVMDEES
Sequence of c-SRC (P12931 whole entry, looked up): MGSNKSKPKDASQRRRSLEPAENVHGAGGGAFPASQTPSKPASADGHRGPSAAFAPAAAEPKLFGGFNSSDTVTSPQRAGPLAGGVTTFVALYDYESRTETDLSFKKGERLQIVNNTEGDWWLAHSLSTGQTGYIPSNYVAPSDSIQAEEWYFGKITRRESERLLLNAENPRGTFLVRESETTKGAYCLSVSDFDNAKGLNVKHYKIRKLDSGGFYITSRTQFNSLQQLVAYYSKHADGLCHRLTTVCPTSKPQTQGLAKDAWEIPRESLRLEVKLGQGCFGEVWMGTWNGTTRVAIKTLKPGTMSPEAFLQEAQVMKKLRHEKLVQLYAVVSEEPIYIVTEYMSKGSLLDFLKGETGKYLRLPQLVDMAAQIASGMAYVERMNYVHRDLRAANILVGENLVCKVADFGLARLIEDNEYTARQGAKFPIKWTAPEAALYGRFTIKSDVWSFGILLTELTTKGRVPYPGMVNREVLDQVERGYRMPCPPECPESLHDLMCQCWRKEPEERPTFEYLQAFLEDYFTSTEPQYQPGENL

Structure (SMILES)	IC50 ([1]; 72 hours) [µM]	IC50 ([2]; 72 hours) [µM]	IC50 [3] [µM]	IC50 ([4]; 72 hours) [µM]	IC50 ([5]; 72 hours) [µM]	IC50 ([6]; 72 hours) [µM]	IC50 [7, 24] [µM]	IC50 ([8]; 72 hours) [µM]	IC50 ([9]; 72 hours) [µM]	IC50 ([10]; 72 hours) [µM]	IC50 ([11]; 72 hours) [µM]	IC50 [20] [µM]	IC50 [21] [µM]	IC50 [22] [µM]	IC50 [23] [µM]	also measured
CC(C)n1c(Nc2ccc(F)c(Cl)c2)nc2cnc(Nc3ccc(C(=O)NN4CCN(C)CC4)cc3F)nc21 [Compound 8-5, 3-fluoro-4-(9-isopropyl-8-(3-chloro-4-fluorophenylamino)-9H-purin-2-ylamino)-N-(4-methylpiperazin-1-yl)benzamide]	–	–	–	–	–	–	–	–	–	–	–	–	–	–	–	IC50 ([1]; Homo sapiens, MV4-11, 72 hours): 1.77 µM; IC50 ([2]; Homo sapiens, SW480, 72 hours): > 10 µM; IC50 ([3]; Homo sapiens): > 1 µM; IC50 ([4]; Homo sapiens, MDA-MB-468, 72 hours): 6.13 µM; IC50 ([5]; Homo sapiens, SW-620, 72 hours): 5.57 µM; IC50 ([6]; Homo sapiens, HCT-116, 72 hours): 7.81 µM; IC50 ([7]; Homo sapiens, HepG2, 72 hours): > 10 µM; IC50 ([8]; Homo sapiens, A-375, 72 hours): > 1 µM; IC50 ([9]; Homo sapiens, A-431, 72 hours): 9.29 µM; IC50 ([10]; Homo sapiens, K562, 72 hours): 3.73 µM; IC50 ([11]; Homo sapiens, BT-474, 72 hours): 1.86 µM; inhibition at 10 µM [12]: 54%; inhibition at 10 µM [13]: 78%; IC50 [14]: > 1 µM; inhibition at 10 µM [15]: 64%; inhibition at 10 µM [16]: 35%; inhibition at 10 µM [17]: 54%; inhibition at 10 µM [18]: 32%; inhibition at 10 µM [19]: 19%
CN1CCN(c2ccc(Nc3ncc4nc(Nc5cccc(Cl)c5)n(C5CCCC5)c4n3)cc2)CC1 [Compounds 8-52]	0.642	4.62	0.457	0.737	1.57	5.93	7.23	0.974	0.0796	0.148	0.165	0.0006	0.0003	0.004	0.271	–
Cc1cccc(Nc2nc3cnc(Nc4ccc(N5CCN(C)CC5)cc4)nc3n2C2CCCC2)c1 [Compounds 8-53]	0.899	4.21	0.559	0.622	2.11	> 10	> 10	8.07	0.249	0.0953	1.51	0.0002	0.0002	0.0041	0.552	–
CN1CCN(c2ccc(Nc3ncc4nc(Nc5cc(Cl)cc(Cl)c5)n(C5CCCC5)c4n3)cc2)CC1 [Compounds 8-54]	1.07	6.73	0.688	3.35	6.64	6.96	5.98	5.58	2.06	0.863	3.96	0.205	0.0063	0.279	1.7	–

Second part, led by results:

IC50 ([1]; 72 hours) [µM]	IC50 ([2]; 72 hours) [µM]	IC50 [3] [µM]	IC50 ([4]; 72 hours) [µM]	IC50 ([5]; 72 hours) [µM]	IC50 ([6]; 72 hours) [µM]	IC50 [7, 24] [µM]	IC50 ([8]; 72 hours) [µM]	IC50 ([9]; 72 hours) [µM]	IC50 ([10]; 72 hours) [µM]	IC50 ([11]; 72 hours) [µM]	IC50 [20] [µM]	IC50 [21] [µM]	IC50 [22] [µM]	IC50 [23] [µM]	Structure (SMILES)	also measured
0.682	5.32	1.72	2.18	2.97	6.55	4.68	2.77	0.198	0.088	0.456	0.001	0.0002	> 10	0.323	CN1CCN(c2ccc(Nc3ncc4nc(Nc5cc(F)ccc5F)n(C5CCCC5)c4n3)cc2)CC1 [Compounds 8-55]	–
4.43	> 10	> 10	> 10	> 10	> 10	> 10	> 10	> 10	> 10	> 10	0.007	0.0006	0.081	> 10	COCCOc1ccc(Nc2ncc3nc(Nc4ccccc4)n(C4CCCC4)c3n2)cc1 [Compounds 8-56]	–
6.16	9.76	4.59	> 10	8.37	7.86	> 10	> 10	5.77	0.352	> 10	0.177	0.028	0.752	> 10	CN1CCN(c2ccc(Nc3ncc4nc(Nc5cc(Cl)c(Cl)cc5Cl)n(C5CCCC5)c4n3)cc2)CC1 [Compounds 8-57]	–
0.0998	4.75	0.808	6.84	1.33	5.72	> 10	1.2	0.497	0.111	1.1	0.0021	0.0002	0.0033	0.248	CCN1CCN(Cc2ccc(Nc3ncc4nc(Nc5ccccc5)n(C5CCCC5)c4n3)cc2)CC1 [Compounds 8-59]	–
